Laboratory results taken from US20250115598A1 (Anaxis Pharma Pty Ltd, priority 2021, published 2025).

Assays:
human MLKL (full length) = human MLKL (full length) (Homo sapiens (Human), UniProt Q8NB16); test: KINOMEscan binding assay, human MLKL (full length); details: hMLKL, Table 25; read-out: MLKL (KD)
Method in brief: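 Active-site competition binding: DNA-tagged kinase (T7 phage fusion from BL21-derived E. coli lysate, or HEK-293-expressed) captured on immobilized-ligand beads, with bound kinase in the eluate quantified by qPCR. Compounds ran as 11-point 3-fold dilutions, 1% DMSO, top 30,000 nM for most. Kd came from a Hill fit (slope −1).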

endogenous MLKL in MDF = endogenous MLKL in MDF (Mus musculus (Mouse), UniProt Q9D2Y4); test: Degradation assay: endogenous MLKL in MDF (western blot); details: MDF cells, 24 h incubation with compound, MLKL adjusted for loading with GAPDH, normalized to DMSO only control, read-out: Degradation of endogenous MLKL in MDF (DC50 cell-based assay)
Experimental: Degradation Assay: Screening Compounds Procedure to Evaluate the Activity of Compounds in Degrading Endogenous MLKL in Human and Mouse Cell
The mouse dermal fibroblast (MDF) cell line was seeded the day before the experiment in a 24-well plate at a cell density of […] per well in a volume of 0.5 mL per well and left to attach overnight. The human monocyte cell line (U937) was seeded on the day of the experiment in a 24-well plate at a cell density of […] per well in a volume of 0.5 mL per well.
The compound was diluted in DMSO with a starting concentration of 10 mM and titrated stepwise with a dilution of 1:5. 0.5 μL of the compound dilution was added to the appropriate well to achieve a final concentration of 10; 2; 0.4; 0.08 and 0.016 μM. A DMSO only well was included as control.
The cells were incubated for 24 h in the presence of the compound at 37° C. and 10% CO2.
After the 24 h incubation period, the medium was removed and cells washed with 0.5 mL PBS. The cells were then lysed directly in 60 μL of 1×SDS gel loading buffer.
The cell lysate was heat-denatured at […] for 10 min. 10 μL of lysate per well were run on 18-well 4-15% Criterion TGX stain free gels (BIO-RAD). The proteins were then transferred onto nitrocellulose membrane with a wet transfer protocol in the Criterion Blotter (BIO-RAD).
Membranes were blocked with 5% skim milk in TBST. Primary antibody against MLKL (clone 3H1, MABC604 Merck) was used at 1:2000 dilution in TBST with 1% BSA and left shaking over night at 4° C. After washes with TBST, the membranes were incubated with goat anti-rat IgG HRP-conjugated antibody (Southern Biotech) in 1% skim milk TBST at 1:10000 dilution for 1 h at room temperature. After TBST washes the bands were imaged on the ChemiDoc MP Imaging System (BIO-RAD) with Immobilion Western Chemiluminescent HRP Substrate Forte (Millipore). The loading control GAPDH was probed for with rabbit anti-GAPDH (CST 14C10) at 1:2000 dilution in 1% BSA TBST over night at 4° C. TBST washes were followed by incubation with goat anti-rabbit IgG HRP-conjugated antibody (Southern Biotech) in 1% skim milk TBST at 1:10000 dilution for 1 h at room temperature followed by TBST washes. The signal was detected as described above.
The band intensity was measured in the ImageLab Software (BIO-RAD) and the MLKL values adjusted for loading with GAPDH. The percentage of degradation was calculated by normalizing the compound treated values to the DMSO only control.

[1] = system: Immortalised Mouse Dermal Fibroblasts (MDFs); test: Cellular assay: inhibition of TSI induced necroptosis, CellTitre-Glo viability; details: Mus musculus, Fibroblast; MDF, 3 hours TSI cocktail, Table 27; read-out: Inhibition of TSI-induced necroptosis (IC50 cell-based assay) in MDF
Method in brief: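 Immortalised mouse dermal fibroblasts (2200 cells/well) pretreated 30 min with compound, 10-point 1:3 series from 36 μM, 0.3% DMSO. Then 3 h at 37° C. with TNF (100 ng/ml), Smac mimetic (500 nM) and IDN-6556 (10 μM). CellTiter-Glo luminescence normalised to DMSO (100%) and DMSO+TSI (0%); IC50 from 4-parameter logistic fit.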

Chain of human MLKL (full length) (Q8NB16 whole entry, the tested form may be a part): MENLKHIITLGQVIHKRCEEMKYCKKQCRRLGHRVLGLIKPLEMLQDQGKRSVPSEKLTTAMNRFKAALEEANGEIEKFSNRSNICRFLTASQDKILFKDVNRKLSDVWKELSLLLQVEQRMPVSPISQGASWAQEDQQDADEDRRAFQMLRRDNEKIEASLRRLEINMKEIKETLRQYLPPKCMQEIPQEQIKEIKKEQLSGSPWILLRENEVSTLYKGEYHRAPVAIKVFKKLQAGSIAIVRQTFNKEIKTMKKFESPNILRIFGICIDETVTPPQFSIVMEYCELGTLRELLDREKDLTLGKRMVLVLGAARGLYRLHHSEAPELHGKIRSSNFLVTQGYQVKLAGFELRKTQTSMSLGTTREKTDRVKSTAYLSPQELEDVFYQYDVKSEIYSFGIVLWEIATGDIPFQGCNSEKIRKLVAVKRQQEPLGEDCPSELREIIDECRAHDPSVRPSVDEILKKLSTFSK
Chain of endogenous MLKL in MDF (Q9D2Y4 whole entry): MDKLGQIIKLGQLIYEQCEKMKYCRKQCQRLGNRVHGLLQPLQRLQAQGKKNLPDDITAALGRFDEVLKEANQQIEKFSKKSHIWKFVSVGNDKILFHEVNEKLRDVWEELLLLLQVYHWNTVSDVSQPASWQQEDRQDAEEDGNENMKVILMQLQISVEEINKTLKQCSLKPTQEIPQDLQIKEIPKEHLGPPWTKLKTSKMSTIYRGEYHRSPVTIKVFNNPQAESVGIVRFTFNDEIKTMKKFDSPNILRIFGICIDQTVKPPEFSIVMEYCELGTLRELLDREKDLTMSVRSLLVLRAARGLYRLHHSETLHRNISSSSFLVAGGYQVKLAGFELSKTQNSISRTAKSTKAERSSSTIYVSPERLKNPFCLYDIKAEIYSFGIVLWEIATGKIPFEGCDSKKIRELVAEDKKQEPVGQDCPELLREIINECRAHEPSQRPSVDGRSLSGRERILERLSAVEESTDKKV

SMILES | Kd (human MLKL (full length)) | DC50 (endogenous MLKL in MDF) | IC50 [1]
C[C@H](Oc1cc(-c2nn(C)c3c(-c4cnn(C5CCN(C(=O)CCC6CCN(c7cc8c(cc7F)C(=O)N(C7CCC(=O)NC7=O)C8=O)CC6)CC5)c4)cnc(N)c23)ccc1NS(=O)(=O)C(F)F)c1ccc(F)cc1 (stereo partly drawn) [Compound 1087, N-[4-(4-amino-7-{1-[1-(3-{1-[2-(2,6-dioxopiperidin-3-yl)-6-fluoro-1,3-dioxo-2,3-dihydro-1H-isoindol-5-yl]piperidin-4-yl}propanoyl)piperidin-4-yl]-1H-pyrazol-4-yl}-1-methyl-1H-pyrazolo[4,3-c]pyridin-3-yl)-2-[(1S)-1-(4-fluorophenyl)ethoxy]phenyl]-1,1-difluoromethanesulfonamide] | 0.01 to 1 µM | < 1 µM | < 1 µM
C[C@H](Oc1cc(-c2nn(C)c3c(-c4cnn(C5CCN(C(=O)[C@H]6C[C@H](Nc7ccc8c(c7)C(=O)N(C7CCC(=O)NC7=O)C8=O)C6)CC5)c4)cnc(N)c23)ccc1NS(=O)(=O)C(F)F)c1ccc(F)cc1 (stereo partly drawn) [Compound 1094, N-{4-[4-amino-1-methyl-7-(1-{1-[(trans)-3-{[2-(2,6-dioxopiperidin-3-yl)-1,3-dioxo-2,3-dihydro-1H-isoindol-5-yl]amino}cyclobutanecarbonyl]piperidin-4-yl}-1H-pyrazol-4-yl)-1H-pyrazolo[4,3-c]pyridin-3-yl]-2-[(1S)-1-(4-fluorophenyl)ethoxy]phenyl}-1,1-difluoromethanesulfonamide] | < 0.01 µM | < 1 µM | < 1 µM
C[C@H](Oc1cc(-c2nn(C)c3c(-c4cnn(C5CCN(C(=O)[C@H]6C[C@@H](Nc7cccc8c7C(=O)N(C7CCC(=O)NC7=O)C8=O)C6)CC5)c4)cnc(N)c23)ccc1NS(=O)(=O)C(F)F)c1ccc(F)cc1 (stereo partly drawn) [Compound 1055, N-{4-[4-amino-1-methyl-7-(1-{1-[(cis)-3-{[2-(2,6-dioxopiperidin-3-yl)-1,3-dioxo-2,3-dihydro-1H-isoindol-4-yl]amino}cyclobutane-carbonyl]piperidin-4-yl}-1H-pyrazol-4-yl)-1H-pyrazolo[4,3-c]pyridin-3-yl]-2-[(1S)-1-(4-fluorophenyl)ethoxy]phenyl}-1,1-difluoromethanesulfonamide] | 0.01 to 1 µM | < 1 µM | < 1 µM
C[C@H](Oc1cc(-c2nn(C)c3c(-c4cnn(C5CCN(CCN6CCCC(COc7cccc8c7C(=O)N(C7CCC(=O)NC7=O)C8=O)C6)CC5)c4)cnc(N)c23)ccc1NS(=O)(=O)C(F)F)c1ccc(F)cc1 (stereo partly drawn) [Compound 1132, N-(4-{4-amino-7-[1-(1-{2-[3-({[2-(2,6-dioxopiperidin-3-yl)-1,3-dioxo-2,3-dihydro-1H-isoindol-4-yl]oxy}methyl)piperidin-1-yl]ethyl}piperidin-4-yl)-1H-pyrazol-4-yl]-1-methyl-1H-pyrazolo[4,3-c]pyridin-3-yl}-2-[(1S)-1-(4-fluorophenyl)ethoxy]phenyl)-1,1-difluoromethanesulfonamide] | 0.01 to 1 µM | < 1 µM | < 1 µM
CN[C@@H](C)C(=O)N[C@H](C(=O)N1CC(NC(=O)CCCCCCCCn2cc(-c3cnc(N)c4c(-c5ccc(NS(=O)(=O)C(F)F)c(O[C@@H](C)c6ccc(F)cc6)c5)nn(C)c34)cn2)C[C@H]1C(=O)Nc1c(F)cccc1F)C(C)(C)C (stereo partly drawn) [Compound 1090, (2S)-4-[9-(4-{4-amino-3-[4-(difluoromethanesulfonamido)-3-[(1S)-1-(4-fluorophenyl)ethoxy]phenyl]-1-methyl-1H-pyrazolo[4,3-c]pyridin-7-yl}-1H-pyrazol-1-yl)nonanamido]-N-(2,6-difluorophenyl)-1-[(2S)-3,3-dimethyl-2-[(2S)-2-(methylamino)propanamido]butanoyl]pyrrolidine-2-carboxamide] | < 0.01 µM | 1 to 10 µM | 1 to 10 µM
C[C@H](Oc1cc(-c2nn(C)c3c(-c4cnn(C5CCN(C(=O)CCC6CCN(c7cccc8c7C(=O)N(C7CCC(=O)NC7=O)C8=O)CC6)CC5)c4)cnc(N)c23)ccc1NS(=O)(=O)C(F)F)c1ccc(F)cc1 (stereo partly drawn) [Compound 1043, N-[4-(4-amino-7-{1-[1-(3-{1-[2-(2,6-dioxopiperidin-3-yl)-1,3-dioxo-2,3-dihydro-1H-isoindol-4-yl]piperidin-4-yl}propanoyl)piperidin-4-yl]-1H-pyrazol-4-yl}-1-methyl-1H-pyrazolo[4,3-c]pyridin-3-yl)-2-[(1S)-1-(4-fluorophenyl)ethoxy]phenyl]-1,1-difluoromethanesulfonamide] | 0.01 to 1 µM | < 1 µM | < 1 µM
C[C@H](Oc1cc(-c2nn(C)c3c(-c4cnn(C5CCN(C(=O)c6ccc7c(c6)CN(C6CCC(=O)NC6=O)C7=O)CC5)c4)cnc(N)c23)ccc1NS(=O)(=O)C(F)F)c1ccc(F)cc1 (stereo partly drawn) [Compound 1096, N-{4-[4-amino-7-(1-{1-[2-(2,6-dioxopiperidin-3-yl)-1-oxo-2,3-dihydro-1H-isoindole-5-carbonyl]piperidin-4-yl}-1H-pyrazol-4-yl)-1-methyl-1H-pyrazolo[4,3-c]pyridin-3-yl]-2-[(1S)-1-(4-fluorophenyl)ethoxy]phenyl}-1,1-difluoromethanesulfonamide] | < 0.01 µM | < 1 µM | 1 to 10 µM
C[C@H](Oc1cc(-c2nn(C)c3c(-c4cnn(C5CCC(C(=O)N6CC(Nc7cccc8c7C(=O)N(C7CCC(=O)NC7=O)C8=O)C6)CC5)c4)cnc(N)c23)ccc1NS(=O)(=O)C(F)F)c1ccc(F)cc1 (stereo partly drawn) [Compound 1133, N-[4-(4-amino-7-{1-[4-(3-{[2-(2,6-dioxopiperidin-3-yl)-1,3-dioxo-2,3-dihydro-1H-isoindol-4-yl]amino}azetidine-1-carbonyl)cyclohexyl]-1H-pyrazol-4-yl}-1-methyl-1H-pyrazolo[4,3-c]pyridin-3-yl}-2-[(1S)-1-(4-fluorophenyl)ethoxy]phenyl]-1,1-difluoromethanesulfonamide] | 0.01 to 1 µM | < 1 µM | 1 to 10 µM
C[C@H](Oc1cc(-c2nn(C)c3c(-c4cnn(C5CCN(C(=O)C6CC(N(C)c7cccc8c7C(=O)N(C7CCC(=O)NC7=O)C8=O)C6)CC5)c4)cnc(N)c23)ccc1NS(=O)(=O)C(F)F)c1ccc(F)cc1 (stereo partly drawn) [Compound 1119, N-{4-[4-amino-1-methyl-7-(1-{1-[(trans)-3-{[2-(2,6-dioxopiperidin-3-yl)-1,3-dioxo-2,3-dihydro-1H-isoindol-4-yl](methyl)amino}cyclobutanecarbonyl]piperidin-4-yl}-1H-pyrazol-4-yl)-1H-pyrazolo[4,3-c]pyridin-3-yl]-2-[(1S)-1-(4-fluorophenyl)ethoxy]phenyl}-1,1-difluoromethanesulfonamide] | < 0.01 µM | < 1 µM | < 1 µM
Cc1ncsc1-c1ccc(CNC(=O)[C@@H]2C[C@@H](O)CN2C(=O)[C@@H](NC(=O)COCCOc2ccc(-c3cnc(N)c4c(-c5ccc(NS(=O)(=O)C(F)F)c(O[C@@H](C)c6ccc(F)cc6)c5)nn(C)c34)cc2)C(C)(C)C)cc1 [Compound 1049, (2S,4R)-1-[(2S)-2-{2-[2-(4-{4-amino-3-[4-(difluoromethanesulfonamido)-3-[(1S)-1-(4-fluorophenyl)ethoxy]phenyl]-1-methyl-1H-pyrazolo[4,3-c]pyridin-7-yl}phenoxy)ethoxy]acetamido}-3,3-dimethylbutanoyl]-4-hydroxy-N-{[4-(4-methyl-1,3-thiazol-5-yl)phenyl]methyl}pyrrolidine-2-carboxamide] | 0.01 to 1 µM | < 1 µM | 1 to 10 µM
